Test results as given in patent publication US8048825B2, “Haloalkylsulfonanilide derivatives or salt thereof, herbicide comprising the derivatives as active ingredient, and use of the herbicide” (Nihon Nohyaku Co., Ltd., priority 2006, dated 2011).

Key:
Assay type in all cases: in vivo
[1] = tested on: Lindernia procumbens; assay: Herbicidal efficacy on paddy field weeds of pre-emergence stage (Pre), Test Example 1; conditions: 1000 g/ha as active ingredient, examined after 21 days
Procedure, shortened: (§1)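 Pre-emergence paddy test: 1000 g/ha active ingredient, formulated and water-diluted, dropped onto 5 cm floodwater one day after sowing both weeds in clay loam. After 21 days in greenhouse, inhibition relative to untreated control rated on 0 (0%) to 5 (100%) scale.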

[2] = tested on: Scirpus juncoides; assay: as above; conditions: 1000 g/ha as active ingredient, examined after 21 days
Procedure, shortened: as §1

[3] = tested on: Echinochloa crus-galli; assay: Herbicidal effect on paddy field weeds of post-emergence stage (Post), Test Example 2; conditions: one-leaf stage, 1000 g/ha as active ingredient, examined after 21 days
Procedure, shortened: (§2)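 Post-emergence paddy test: formulated compound added to 5 cm standing water at 1000 g/ha a.i. when weeds reached one-leaf stage in clay loam pots in greenhouse. Growth inhibition rated 21 days later versus untreated control on a 0 (0%) to 5 (100%) scale.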

[4] = tested on: Lindernia procumbens; assay: as above; conditions: one-leaf stage, 1000 g/ha as active ingredient, examined after 21 days
Procedure, shortened: as §2

[5] = tested on: Scirpus juncoides; assay: as above; conditions: one-leaf stage, 1000 g/ha as active ingredient, examined after 21 days
Procedure, shortened: as §2

CCOC(=O)N(c1ccccc1CN1CCC(c2c(Cl)cccc2Cl)OC1=O)S(=O)(=O)C(F)(F)F (centres unmarked) [Compound 1-274]
Lindernia procumbens pre (herbicidal effect) [1]: 5 (100% herbicidal effect, phytotoxicity) | Scirpus juncoides pre (herbicidal effect) [2]: 4 (90%-99% herbicidal effect, phytotoxicity) | Echinochloa crus-galli post (herbicidal effect) [3]: 4 (90%-99% herbicidal effect, phytotoxicity) | Lindernia procumbens post (herbicidal effect) [4]: 5 (100% herbicidal effect, phytotoxicity) | Scirpus juncoides post (herbicidal effect) [5]: 4 (90%-99% herbicidal effect, phytotoxicity)

CCOC(=O)N(c1ccccc1CN1CCC(C)(Cc2ccccc2F)OC1=O)S(=O)(=O)C(F)(F)F (racemic) [Compound 1-463]
Lindernia procumbens pre (herbicidal effect) [1]: 5 (100% herbicidal effect, phytotoxicity) | Scirpus juncoides pre (herbicidal effect) [2]: 5 (100% herbicidal effect, phytotoxicity) | Echinochloa crus-galli post (herbicidal effect) [3]: 4 (90%-99% herbicidal effect, phytotoxicity) | Lindernia procumbens post (herbicidal effect) [4]: 5 (100% herbicidal effect, phytotoxicity) | Scirpus juncoides post (herbicidal effect) [5]: 4 (90%-99% herbicidal effect, phytotoxicity)

CCOC(=O)N(c1ccccc1CN1CCC(C)(c2ccccc2C(F)(F)F)OC1=O)S(=O)(=O)C(F)(F)F (centres unmarked) [Compound 1-395]
Lindernia procumbens pre (herbicidal effect) [1]: 5 (100% herbicidal effect, phytotoxicity) | Scirpus juncoides pre (herbicidal effect) [2]: 5 (100% herbicidal effect, phytotoxicity) | Echinochloa crus-galli post (herbicidal effect) [3]: 4 (90%-99% herbicidal effect, phytotoxicity) | Lindernia procumbens post (herbicidal effect) [4]: 5 (100% herbicidal effect, phytotoxicity) | Scirpus juncoides post (herbicidal effect) [5]: 4 (90%-99% herbicidal effect, phytotoxicity)

CCOC(=O)N(c1ccccc1CN1CCC(CC)(C(F)(F)F)OC1=O)S(=O)(=O)C(F)(F)F (centres unmarked) [Compound 1-93]
Lindernia procumbens pre (herbicidal effect) [1]: 5 (100% herbicidal effect, phytotoxicity) | Scirpus juncoides pre (herbicidal effect) [2]: 5 (100% herbicidal effect, phytotoxicity) | Echinochloa crus-galli post (herbicidal effect) [3]: 4 (90%-99% herbicidal effect, phytotoxicity) | Lindernia procumbens post (herbicidal effect) [4]: 5 (100% herbicidal effect, phytotoxicity) | Scirpus juncoides post (herbicidal effect) [5]: 4 (90%-99% herbicidal effect, phytotoxicity)

CCOC(=O)N(c1ccccc1CN1CCC(c2ccccc2)(C2CC2)OC1=O)S(=O)(=O)C(F)(F)F (centres unmarked) [Compound 1-185]
Lindernia procumbens pre (herbicidal effect) [1]: 4 (90%-99% herbicidal effect, phytotoxicity) | Scirpus juncoides pre (herbicidal effect) [2]: 4 (90%-99% herbicidal effect, phytotoxicity) | Echinochloa crus-galli post (herbicidal effect) [3]: 4 (90%-99% herbicidal effect, phytotoxicity) | Lindernia procumbens post (herbicidal effect) [4]: 4 (90%-99% herbicidal effect, phytotoxicity) | Scirpus juncoides post (herbicidal effect) [5]: 4 (90%-99% herbicidal effect, phytotoxicity)

CCOC(=O)N(c1ccccc1CN1CCC(C)COC1=O)S(=O)(=O)C(F)(F)F (racemic) [2-25]
Lindernia procumbens pre (herbicidal effect) [1]: 4 (90%-99% herbicidal effect, phytotoxicity) | Scirpus juncoides pre (herbicidal effect) [2]: 4 (90%-99% herbicidal effect, phytotoxicity) | Echinochloa crus-galli post (herbicidal effect) [3]: 4 (90%-99% herbicidal effect, phytotoxicity) | Lindernia procumbens post (herbicidal effect) [4]: 4 (90%-99% herbicidal effect, phytotoxicity) | Scirpus juncoides post (herbicidal effect) [5]: 4 (90%-99% herbicidal effect, phytotoxicity)

CC(C)COC(=O)N(c1ccccc1CN1CC(C)(C)COC1=S)S(=O)(=O)C(F)(F)F [Compound 1-39]
Lindernia procumbens pre (herbicidal effect) [1]: 4 (90%-99% herbicidal effect, phytotoxicity) | Scirpus juncoides pre (herbicidal effect) [2]: 4 (90%-99% herbicidal effect, phytotoxicity) | Echinochloa crus-galli post (herbicidal effect) [3]: 4 (90%-99% herbicidal effect, phytotoxicity) | Lindernia procumbens post (herbicidal effect) [4]: 4 (90%-99% herbicidal effect, phytotoxicity) | Scirpus juncoides post (herbicidal effect) [5]: 4 (90%-99% herbicidal effect, phytotoxicity)

CC(C)COC(=O)N(c1ccccc1CN1CCC(C)(C)OC1=S)S(=O)(=O)C(F)(F)F [Compound 1-63]
Lindernia procumbens pre (herbicidal effect) [1]: 4 (90%-99% herbicidal effect, phytotoxicity) | Scirpus juncoides pre (herbicidal effect) [2]: 4 (90%-99% herbicidal effect, phytotoxicity) | Echinochloa crus-galli post (herbicidal effect) [3]: 4 (90%-99% herbicidal effect, phytotoxicity) | Lindernia procumbens post (herbicidal effect) [4]: 4 (90%-99% herbicidal effect, phytotoxicity) | Scirpus juncoides post (herbicidal effect) [5]: 4 (90%-99% herbicidal effect, phytotoxicity)

CC(C)(C)C1(C)CCN(Cc2ccccc2NS(=O)(=O)C(F)(F)F)C(=O)O1 (centres unmarked) [Compound 1-327]
Lindernia procumbens pre (herbicidal effect) [1]: 5 (100% herbicidal effect, phytotoxicity) | Scirpus juncoides pre (herbicidal effect) [2]: 5 (100% herbicidal effect, phytotoxicity) | Echinochloa crus-galli post (herbicidal effect) [3]: 4 (90%-99% herbicidal effect, phytotoxicity) | Lindernia procumbens post (herbicidal effect) [4]: 5 (100% herbicidal effect, phytotoxicity) | Scirpus juncoides post (herbicidal effect) [5]: 4 (90%-99% herbicidal effect, phytotoxicity)

CCC1(CC)CCN(Cc2ccccc2NS(=O)(=O)C(F)(F)F)C(=O)O1 [Compound 1-102]
Lindernia procumbens pre (herbicidal effect) [1]: 4 (90%-99% herbicidal effect, phytotoxicity) | Scirpus juncoides pre (herbicidal effect) [2]: 4 (90%-99% herbicidal effect, phytotoxicity) | Echinochloa crus-galli post (herbicidal effect) [3]: 4 (90%-99% herbicidal effect, phytotoxicity) | Lindernia procumbens post (herbicidal effect) [4]: 4 (90%-99% herbicidal effect, phytotoxicity) | Scirpus juncoides post (herbicidal effect) [5]: 4 (90%-99% herbicidal effect, phytotoxicity)

CC(C)COC(=O)N(c1ccccc1CN1CCC(C)(C(C)(C)C)OC1=O)S(=O)(=O)C(F)(F)F (centres unmarked) [Compound 1-332]
Lindernia procumbens pre (herbicidal effect) [1]: 5 (100% herbicidal effect, phytotoxicity) | Scirpus juncoides pre (herbicidal effect) [2]: 5 (100% herbicidal effect, phytotoxicity) | Echinochloa crus-galli post (herbicidal effect) [3]: 4 (90%-99% herbicidal effect, phytotoxicity) | Lindernia procumbens post (herbicidal effect) [4]: 5 (100% herbicidal effect, phytotoxicity) | Scirpus juncoides post (herbicidal effect) [5]: 4 (90%-99% herbicidal effect, phytotoxicity)

CCOC(=O)N(c1ccccc1CN1CCC(CC)(c2ccccc2)OC1=O)S(=O)(=O)C(F)(F)F (centres unmarked) [Compound 1-318]
Lindernia procumbens pre (herbicidal effect) [1]: 5 (100% herbicidal effect, phytotoxicity) | Scirpus juncoides pre (herbicidal effect) [2]: 4 (90%-99% herbicidal effect, phytotoxicity) | Echinochloa crus-galli post (herbicidal effect) [3]: 4 (90%-99% herbicidal effect, phytotoxicity) | Lindernia procumbens post (herbicidal effect) [4]: 5 (100% herbicidal effect, phytotoxicity) | Scirpus juncoides post (herbicidal effect) [5]: 4 (90%-99% herbicidal effect, phytotoxicity)

CCC1(C)CCN(Cc2ccccc2NS(=O)(=O)C(F)(F)F)C(=O)O1 (centres unmarked) [Compound 1-69]
Lindernia procumbens pre (herbicidal effect) [1]: 4 (90%-99% herbicidal effect, phytotoxicity) | Scirpus juncoides pre (herbicidal effect) [2]: 4 (90%-99% herbicidal effect, phytotoxicity) | Echinochloa crus-galli post (herbicidal effect) [3]: 4 (90%-99% herbicidal effect, phytotoxicity) | Lindernia procumbens post (herbicidal effect) [4]: 4 (90%-99% herbicidal effect, phytotoxicity) | Scirpus juncoides post (herbicidal effect) [5]: 4 (90%-99% herbicidal effect, phytotoxicity)

CC(C)(C)COC(=O)N(c1ccccc1CN1CCC(C)(C2CCC2)OC1=O)S(=O)(=O)C(F)(F)F (centres unmarked) [Compound 1-388]
Lindernia procumbens pre (herbicidal effect) [1]: 5 (100% herbicidal effect, phytotoxicity) | Scirpus juncoides pre (herbicidal effect) [2]: 5 (100% herbicidal effect, phytotoxicity) | Echinochloa crus-galli post (herbicidal effect) [3]: 5 (100% herbicidal effect, phytotoxicity) | Lindernia procumbens post (herbicidal effect) [4]: 5 (100% herbicidal effect, phytotoxicity) | Scirpus juncoides post (herbicidal effect) [5]: 4 (90%-99% herbicidal effect, phytotoxicity)

CCOC(=O)N(c1ccccc1CN1CCC(C)(C2(C)CC2)OC1=O)S(=O)(=O)C(F)(F)F (centres unmarked) [Compound 1-373]
Lindernia procumbens pre (herbicidal effect) [1]: 5 (100% herbicidal effect, phytotoxicity) | Scirpus juncoides pre (herbicidal effect) [2]: 5 (100% herbicidal effect, phytotoxicity) | Echinochloa crus-galli post (herbicidal effect) [3]: 4 (90%-99% herbicidal effect, phytotoxicity) | Lindernia procumbens post (herbicidal effect) [4]: 5 (100% herbicidal effect, phytotoxicity) | Scirpus juncoides post (herbicidal effect) [5]: 4 (90%-99% herbicidal effect, phytotoxicity)

CCC1(c2ccccc2)CCN(Cc2ccccc2N(C(=O)OCC(C)C)S(=O)(=O)C(F)(F)F)C(=O)O1 (centres unmarked) [Compound 1-321]
Lindernia procumbens pre (herbicidal effect) [1]: 5 (100% herbicidal effect, phytotoxicity) | Scirpus juncoides pre (herbicidal effect) [2]: 4 (90%-99% herbicidal effect, phytotoxicity) | Echinochloa crus-galli post (herbicidal effect) [3]: 4 (90%-99% herbicidal effect, phytotoxicity) | Lindernia procumbens post (herbicidal effect) [4]: 5 (100% herbicidal effect, phytotoxicity) | Scirpus juncoides post (herbicidal effect) [5]: 4 (90%-99% herbicidal effect, phytotoxicity)

CCCCOC(=O)N(c1ccccc1CN1CCCCOC1=O)S(=O)(=O)C(F)(F)F [2-5]
Lindernia procumbens pre (herbicidal effect) [1]: 4 (90%-99% herbicidal effect, phytotoxicity) | Scirpus juncoides pre (herbicidal effect) [2]: 4 (90%-99% herbicidal effect, phytotoxicity) | Echinochloa crus-galli post (herbicidal effect) [3]: 4 (90%-99% herbicidal effect, phytotoxicity) | Lindernia procumbens post (herbicidal effect) [4]: 4 (90%-99% herbicidal effect, phytotoxicity) | Scirpus juncoides post (herbicidal effect) [5]: 4 (90%-99% herbicidal effect, phytotoxicity)

CCOC(=O)N(c1ccccc1CN1CCC(CC)(C(C)C)OC1=O)S(=O)(=O)C(F)(F)F (racemic) [Compound 1-452]
Lindernia procumbens pre (herbicidal effect) [1]: 5 (100% herbicidal effect, phytotoxicity) | Scirpus juncoides pre (herbicidal effect) [2]: 5 (100% herbicidal effect, phytotoxicity) | Echinochloa crus-galli post (herbicidal effect) [3]: 4 (90%-99% herbicidal effect, phytotoxicity) | Lindernia procumbens post (herbicidal effect) [4]: 5 (100% herbicidal effect, phytotoxicity) | Scirpus juncoides post (herbicidal effect) [5]: 4 (90%-99% herbicidal effect, phytotoxicity)

COC(=O)N(c1ccccc1CN1CCC(C)COC1=O)S(=O)(=O)C(F)(F)F (racemic) [2-24]
Lindernia procumbens pre (herbicidal effect) [1]: 4 (90%-99% herbicidal effect, phytotoxicity) | Scirpus juncoides pre (herbicidal effect) [2]: 4 (90%-99% herbicidal effect, phytotoxicity) | Echinochloa crus-galli post (herbicidal effect) [3]: 4 (90%-99% herbicidal effect, phytotoxicity) | Lindernia procumbens post (herbicidal effect) [4]: 4 (90%-99% herbicidal effect, phytotoxicity) | Scirpus juncoides post (herbicidal effect) [5]: 4 (90%-99% herbicidal effect, phytotoxicity)
